{"source": "patent US10174120B2", "about": "“Methods and compositions for treating solid tumors and enhancing tumor vaccines” (THE TRUSTEES OF THE UNIVERSITY OF PENNSYLVANIA, priority 2007, dated 2019)", "key": {"[1]": {"system": "HUVEC", "assay": "Adhesion of activated T cells to pretreated HUVEC", "assay_type": "cell-based, human", "details": "for T cell adhesion to HUVEC in the presence of TNF- and ET-1: NO antagonist / NO donor under the same experimental conditions; for adherence of activated human T cells to HUVEC: T cells activated with PMA or CD3/CD28, Endothelin plus BQ-788 compared to Endothelin alone, Endothelin and ETRA antagonist, or untreated", "protocol": "(§1) Human vascular endothelial cells (HUVEC) were grown to 70% confluence in EBM media then treated with 50 nM Endothelin receptor B inhibitor BQ-788 (American peptide), or 2.5 nm Endothelin alone or in the presence of either 50 nm Endothelin receptor A inhibitor BQ123 (American peptide), or 50 nM Endothelin receptor B inhibitor BQ-788. Alternatively cells were treated with BQ-788 alone. Media was changed every 48 hrs for a total of 6 days. After 6 days cells were harvested for RNA, flow cytometry or incubated activated T cells. T cells were activated for 48 hours with either 5 ng/ml PMA […] or CD3 and CD28 beads. After activation T cells were labeled with CFSE and then incubated with pretreated endothelial cells for 2 hours with shaking. Cells were then washed 3× with PBS and adhesions was determined using a fluorescent plate reader.\nThe ability of activated T cells to adhere to BQ-788-treated HUVEC was also tested. […] T cell adherence to BQ788/Endothelin-treated HUVEC was 40% as effective as TNF-alpha activation of HUVEC. Thus, under the conditions utilized, BQ788 induces expression of ICAM-1 on endothelial cells and leads to increased T cell adhesion to tumor endothelium, playing a role in its increase of intratumoral T cells and enhancement of vaccine efficacy.\n(§2) To further test the role of ETRB signaling in adhesion, the effects of NO antagonist L-NAME and NO donor DETANO were tested under the above experimental conditions. […] Thus, ET-1, through ETRB, downregulates the ability of endothelium to respond to inflammatory signals present in the tumor microenvironment such as TNF-α, which is restored by blocking ETRB through BQ788. Further, an NO antagonist abrogated the effects of ET-1, while NO donor reproduced its effect, showing that NO plays a role in the inhibitory effect of ET-1. To further test whether ETRB signaling upregulates NO in endothelial cells, reactive oxidative species (ROS) were quantified in HUVEC."}, "[2]": {"system": "ID8 flank tumors", "assay": "T cell infiltration into ID8 flank tumors (IHC, flow cytometry)", "assay_type": "in vivo, mice", "protocol": "(§3) Two injections of 5×10 6th UV irradiated ID8 ovarian cancer cells were injected sub-cutaneously in C57Bl6 mice one week apart. Vaccinated mice and non-vaccinated controls were injected with 5×10^6 ID8 cells in the flank with […] matrigel or intraperitoneally. Tumors were allowed to grow for 2 or 5 weeks as indicated, and then treated with intraperitoneal injections of BQ-788 (300 mcg) or control peptide for 2 weeks.\nFACS analysis was performed using APC-CD45 (BD Pharmingen), PE-anti CD3, FITC anti CD4, and Biotin anti-CD8 coupled with streptavid PE-Cy7.\n(§4) To confirm that ETRB plays a role in inhibiting T cell homing to human ovarian cancers, the ID8 syngeneic mouse model of ovarian cancer was utilized. This model responds modestly to potent dendritic cell (DC) vaccination. Strong expression of ETRB was detected in tumor endothelium in ID8 flank tumors by IHC (FIG. 7). Mice were vaccinated with a suboptimal preventive vaccine, containing UV-treated ID8 cells, which results in induction of systemic tumor-reactive interferon-gamma secreting T cells without significant delay in tumor growth Following vaccination, mice were inoculated with flank tumors, which were allowed to engraft for 2 or 5 weeks, and then mice were treated i.p. with the ETRB antagonist peptide, BQ-788, […] (SEQ ID No: 90), every 2nd day for 2 weeks or with control peptide that was a scrambled version of the above peptide. Additional controls included non-vaccinated animals treated with BQ-788 or control peptide. To confirm that the above vaccination scheme results in significant increase in the frequency of systemic tumor-reactive T cells, CD3^+/CD8^+ splenocytes from vaccinated animals treated with BQ-788 or control peptide, and from non-vaccinated mice, were labeled with CFSE and incubated with DC pulsed with UV-radiated ID8 for 6 days to assess proliferation. […] Proliferation of lymphocytes from vaccinated mice treated with BQ-788 or control peptide was similar.\nTumor growth delay was not observed in non-vaccinated mice treated with BQ-788 or in vaccinated mice treated with control peptide. […] Flow cytometry from mechanically dissected tumors confirmed the results observed with IHC: In non-vaccinated animals treated with BQ-788 as well as in vaccinated animals treated with control peptide, CD3^+ cells represented on average 4% of the cells (range 0.5 to 12%), while vaccinated animals treated with BQ-788, CD3^+ cells represented 15% of the cells (range 8 to 30%), containing both CD4^+ and CD8^+ cells (FIG. 8)."}, "[3]": {"system": "ID8 cells", "assay": "CTL assay, lysis of ID8 cells by CD3+/CD8+ splenocytes", "assay_type": "cell-based, mice", "details": "splenocytes from vaccinated animals treated with BQ-788"}, "[4]": {"system": "HUVEC", "assay": "Reactive oxidative species (ROS) quantified in HUVEC", "assay_type": "cell-based, human", "details": "for ROS in HUVEC: exposure to rhET-1, with or without BQ788", "protocol": "as §2"}, "[5]": {"system": "intraperitoneal ID8 cells", "assay": "Orthotopic, intraperitoneal ID8 model of ovarian cancer (ascites, survival)", "assay_type": "in vivo, mice", "details": "vaccinated animals, BQ-788 every 2nd day for 2 weeks from two weeks after i.p. ID8, versus control peptide", "protocol": "as §3\n(§5) Female C57BL/6 mice (8 weeks of age) were injected 3 times […]. with 1×10^6 UV-treated, apoptotic ID8 ovarian cancer cells (resuspended in 500 microliter (mcL) DMEM without supplements) in the flank. For the orthotopic, intraperitoneal model, mice were injected i.p. with 5×10^6ID8 cells.\nThe impact of BQ-788 on survival in vaccinated animals was also tested in the orthotopic, intraperitoneal ID8 model of ovarian cancer. Following vaccination, mice were injected i.p. with ID8 cells. Two weeks later, animals received either BQ-788 or control peptide every 2nd day for 2 weeks."}, "[6]": {"system": "HUVEC", "assay": "HUVEC treated with Endothelin and BQ-788: morphology and qRT-PCR", "assay_type": "cell-based, human", "details": "for morphology of HUVEC: BQ-788 in the presence of Endothelin, 6 days", "protocol": "qRT-PCR was performed using primers to the 3′ end of transcripts spanning intron-exon boundaries whenever possible for 35 cycles using Sybergreen® (ABI, Foster City, Calif.), with primers at 150 nM concentrations. Primers were 18-24 nucleotides and were designed to have a TM of 59-61° C. All transcripts were confirmed using 3% agarose gel electrophoresis. Gene expression was normalized against β-actin in all studies unless stated otherwise.\nas §1\nNext, the effect of BQ-788 on human and murine endothelial cells or T cells was tested in the presence or absence of ET-1 ligand. In addition, the effect of endothelin receptor A antagonist BQ123 was tested. […] Moreover, there was a decrease in the expression of VE-Cadherin mRNA in BQ788-treated cells (FIG. 9)."}, "[7]": {"system": "CD3+/CD8+ splenocytes", "assay": "T cell proliferation assay, CFSE-labeled splenocytes with DC pulsed with UV-radiated ID8", "assay_type": "cell-based, mice", "details": "BQ-788 versus control peptide, 6 days with ID8-pulsed DC", "excerpt": "as §4"}, "[8]": {"system": "ID8 flank tumors", "assay": "ID8 flank tumor model, BQ788 as tumor vaccine adjuvant (tumor growth)", "assay_type": "in vivo, mice", "protocol": "as §3\nThe murine epithelial ovarian cancer cell line ID8, syngeneic to C57BL/6 mice was cultured in DMEM supplemented with 4% FBS, 13 ITS media supplement (bovine insulin (5 mg/L), human transferrin (5 mg/L), and sodium selenite ([…]); Sigma), and antibiotics.\nas §5\nTo confirm that ETRB plays a role in inhibiting T cell homing to human ovarian cancers, the ID8 syngeneic mouse model of ovarian cancer was utilized. This model responds modestly to potent dendritic cell (DC) vaccination. Strong expression of ETRB was detected in tumor endothelium in ID8 flank tumors by IHC (FIG. 7). […]"}}, "note": "“Also recorded” adds a separate entry of the source."}
{"smiles": "COC(=O)[C@@H](N)CCCNC(=N)N[N+](=O)[O-]", "note": "[L-NAME]", "values": [{"measurement": "T cell adhesion to HUVEC in the presence of TNF- and ET-1", "setting": "[1]", "result": "restored T cell adhesion"}]}
{"smiles": "CCCC[C@@H](NC(=O)[C@@H](Cc1cn(C(=O)OC)c2ccccc12)NC(=O)[C@H](CC(C)(C)C)NC(=O)N1[C@H](C)CCC[C@@H]1C)C(=O)O", "note": "[BQ-788]", "values": [{"measurement": "numbers of CD3+, CD8+ T cells in tumors, FACS analysis", "setting": "[2]; BQ788 treated animals as compared to control animals", "result": "increased numbers of CD3^+, CD8^+ T cells"}, {"measurement": "intratumoral CD8+ T cells (IHC)", "setting": "[2]; non-vaccinated animals treated with BQ-788", "result": "scarce intratumoral CD8^+ T cells"}, {"measurement": "CD3+ cells as share of the cells of dissected tumors, flow cytometry, average", "setting": "[2]; non-vaccinated animals treated with BQ-788, stated together with vaccinated animals treated with control peptide", "result": 4, "unit": "%"}, {"measurement": "CD3+ cells as share of the cells of dissected tumors, flow cytometry", "setting": "[2]; vaccinated animals treated with BQ-788", "result": 15, "unit": "%"}, {"measurement": "intratumoral CD8+ T cells (IHC)", "setting": "[2]; vaccinated mice treated with BQ-788", "result": "very strong infiltration by CD8^+ T cells"}, {"measurement": "intratumoral CD8+ T cells (IHC)", "setting": "[2]; vaccinated mice treated with BQ-788, listed as BQ788", "result": "significant numbers of CD8^+ T cells"}, {"measurement": "T cell adherence relative to TNF-alpha activation of HUVEC", "setting": "[1]; BQ788/Endothelin-treated HUVEC", "result": 40, "unit": "%"}, {"measurement": "adherence of activated human T cells to HUVEC", "setting": "[1]", "result": "increased adherence"}, {"measurement": "adherence of activated human T cells to HUVEC", "setting": "[1]; listed as BQ788", "result": "increased ability of T cells to adhere"}, {"measurement": "ID8 cell killing by CD3+/CD8+ splenocytes", "setting": "[3]", "result": "robust ID8 cell killing"}, {"measurement": "suppression of ROS compared with bacterial LPS", "setting": "[4]; HUVEC exposed to ET-1", "result": "as potent as bacterial LPS"}, {"measurement": "ROS in HUVEC", "setting": "[4]", "result": "abrogated such response to ET-1"}, {"measurement": "ascites development", "setting": "[5]", "result": "developed ascites later"}, {"measurement": "survival", "setting": "[5]", "result": "significant prolongation of survival"}, {"measurement": "mRNA levels for ICAM-2, ICAM-3, E-selectin, JAM, CXCL-11, CCL-19, or CCL-21", "setting": "[6]; BQ788-treated HUVEC", "result": "No specific changes were detected"}, {"measurement": "expression of VE-Cadherin mRNA", "setting": "[6]; BQ788-treated HUVEC in the presence of Endothelin", "result": "decrease; also recorded: decreased expression of VE-Cadherin"}, {"measurement": "morphology of HUVEC", "setting": "[6]", "result": "distinct morphological change"}, {"measurement": "morphology of HUVEC", "setting": "[6]; listed as BQ788", "result": "Morphologic changes"}, {"measurement": "increased expression of ICAM-1 mRNA, qRT-PCR", "setting": "[6]; Endothelin and BQ-788 compared to untreated HUVEC, Endothelin alone, or Endothelin plus ETRA antagonist", "result": "over 7 fold"}, {"measurement": "expression of ICAM1, qRT-PCR (in words)", "setting": "[6]; Endothelin+BQ788-treated HUVEC as compared to Endothelin alone or BQ788 alone", "result": "increased expression of ICAM1"}, {"measurement": "proliferation of lymphocytes from vaccinated mice", "setting": "[7]", "result": "similar"}, {"measurement": "tumor growth delay", "setting": "[8]; non-vaccinated mice treated with BQ-788", "result": "not observed"}, {"measurement": "tumor growth", "setting": "[8]; vaccinated mice, i.p. BQ-788 every 2nd day for 2 weeks, starting at 2 or at 5 weeks after engraftment", "result": "significant reduction in tumor growth"}]}
{"smiles": "CC[C@H](C)[C@H](NC(=O)[C@H](CC(=O)O)NC(=O)[C@H](CC(C)C)NC(=O)[C@H](Cc1c[nH]cn1)NC(=O)[C@@H]1CSSC[C@H](N)C(=O)N[C@@H](CO)C(=O)N[C@H]2CSSC[C@H](NC(=O)[C@H](CCC(=O)O)NC(=O)[C@H](CCCCN)NC(=O)[C@H](CC(=O)O)NC(=O)[C@H](CCSC)NC(=O)[C@H](CC(C)C)NC(=O)[C@H](CO)NC(=O)[C@H](CO)NC2=O)C(=O)N[C@@H](C(C)C)C(=O)N[C@@H](Cc2ccc(O)cc2)C(=O)N[C@@H](Cc2ccccc2)C(=O)N1)C(=O)N[C@H](C(=O)N[C@@H](Cc1c[nH]c2ccccc12)C(=O)O)[C@@H](C)CC", "note": "[rhET-1]", "values": [{"measurement": "ROS in HUVEC", "setting": "[4]", "result": "upregulated ROS"}]}
{"smiles": "NCCN(CCN)/[N+]([O-])=N/O", "note": "[DETANO]", "values": [{"measurement": "T cell adhesion to HUVEC in the presence of TNF- and ET-1", "setting": "[1]", "result": "mimicked the effects of ET-1"}]}
